Drawing on ChEMBL document CHEMBL1148572, “1-((S)-2-aminopropyl)-1H-indazol-6-ol: a potent peripherally acting 5-HT2 receptor agonist with ocular hypotensive activity” (J Med Chem, 2006), this text covers inhibition and EC50 for one compound.

Experiment [1] has as its target T1, Atrial natriuretic peptide receptor 1 (Homo sapiens) (UniProt P16066).
T1 sequence (whole entry): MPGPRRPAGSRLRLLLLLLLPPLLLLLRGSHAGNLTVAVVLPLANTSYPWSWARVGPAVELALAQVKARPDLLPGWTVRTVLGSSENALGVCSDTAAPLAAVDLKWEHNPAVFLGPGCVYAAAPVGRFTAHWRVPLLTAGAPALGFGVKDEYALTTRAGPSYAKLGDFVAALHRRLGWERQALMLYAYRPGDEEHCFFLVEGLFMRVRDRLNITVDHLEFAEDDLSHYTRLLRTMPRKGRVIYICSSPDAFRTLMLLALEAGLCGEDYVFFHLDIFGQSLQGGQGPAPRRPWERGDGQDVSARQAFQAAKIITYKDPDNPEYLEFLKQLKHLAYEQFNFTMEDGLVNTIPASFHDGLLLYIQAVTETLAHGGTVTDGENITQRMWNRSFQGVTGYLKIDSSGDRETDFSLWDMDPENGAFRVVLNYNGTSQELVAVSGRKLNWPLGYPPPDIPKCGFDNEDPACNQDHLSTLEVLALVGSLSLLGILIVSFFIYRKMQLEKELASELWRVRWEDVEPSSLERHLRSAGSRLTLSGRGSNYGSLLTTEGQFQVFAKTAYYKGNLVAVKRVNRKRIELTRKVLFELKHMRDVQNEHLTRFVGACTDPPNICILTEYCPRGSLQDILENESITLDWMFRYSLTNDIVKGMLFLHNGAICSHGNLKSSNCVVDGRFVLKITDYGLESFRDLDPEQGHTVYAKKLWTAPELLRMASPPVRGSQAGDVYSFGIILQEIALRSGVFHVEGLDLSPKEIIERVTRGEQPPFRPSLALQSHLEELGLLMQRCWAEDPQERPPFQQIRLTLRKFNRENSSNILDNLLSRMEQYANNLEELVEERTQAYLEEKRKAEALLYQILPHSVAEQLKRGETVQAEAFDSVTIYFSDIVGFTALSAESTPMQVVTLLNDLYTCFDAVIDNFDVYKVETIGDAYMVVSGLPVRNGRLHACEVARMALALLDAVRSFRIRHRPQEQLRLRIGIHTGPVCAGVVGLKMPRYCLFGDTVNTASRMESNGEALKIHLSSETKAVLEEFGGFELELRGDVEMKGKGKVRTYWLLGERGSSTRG
In words: Inhibition of ANP A at 10 uM.

A short description of experiment [2]: Inhibition of non selective binding to VIP at 100 nM.
For experiment [3], the target named is T2, Alpha-2C adrenergic receptor (Homo sapiens, UniProt P18825).
T2 sequence (P18825 whole entry): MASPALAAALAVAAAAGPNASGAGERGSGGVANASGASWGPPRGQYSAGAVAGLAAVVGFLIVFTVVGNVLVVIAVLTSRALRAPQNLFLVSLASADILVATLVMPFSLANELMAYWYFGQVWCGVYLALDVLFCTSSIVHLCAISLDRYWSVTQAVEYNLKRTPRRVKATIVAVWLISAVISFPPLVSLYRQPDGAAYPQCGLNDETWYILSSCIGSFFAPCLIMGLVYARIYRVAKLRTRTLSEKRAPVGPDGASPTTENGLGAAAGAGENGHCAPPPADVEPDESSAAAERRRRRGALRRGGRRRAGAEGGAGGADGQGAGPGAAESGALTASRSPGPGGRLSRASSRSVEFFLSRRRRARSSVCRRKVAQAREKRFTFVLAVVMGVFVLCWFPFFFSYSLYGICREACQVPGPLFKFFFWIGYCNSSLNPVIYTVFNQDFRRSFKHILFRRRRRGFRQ
In words: Activity at adrenergic Alpha-2C receptor expressed in rat-mouse hybrid […] cell by adenylyl cyclase assay. The class given is functional, cell-based.

In the case of `C[C@H](N)Cn1ncc2ccc(O)cc21`, the inhibition in experiment [1] is -5.3%; in experiment [2] it was 5.41%. The same compound displayed a 50% effective concentration (EC50) in experiment [3] of 10 µM.

Usually inhibition stands for the drop in the measured response relative to a control, in per cent. The EC50 is the concentration needed to bring the measured effect to its halfway point. Read a low EC50 as an effect from little substance.
